Data set [1] concerns leukaemia P388, murine sarcoma 37 and Walker's carcinosarcome. The conditions noted are these: cited from earlier work.
Data set [2] has as its system human breast cancer cells MDA-MB-435s. In words: Cell viability of MDA-MB-435s cells, crystal violet staining assay, 72 h exposure. The data set is classed as cell-based. The conditions noted are these: for IC50: 72 h, read-out: IC50 (concentration causing 50% cell viability decrease), compound alone. Here is the method: Cell viability was measured using modified crystal violet staining (CVS) assay as described in [[…] et al., 1985]. In brief, cells were fixed with 1% glutaraldehyde for 15 minutes, washed with water and stained with 0.05% crystal violet for 15 minutes at room temperature. After removal of residual crystal violet by washing with tap water the crystal violet stain was eluted with ethanol sodium citrate (1:1) buffer, and absorbance at 540 nm was measured using a microplate reader. The IC50 values, corresponding to concentrations of compounds that cause 50% cell viability decrease, were calculated for individual compounds and their combinations and are summarized in Table 1.

The structures appear in SMILES notation. Where a name gives a salt, the structure may show the parent alone. Read-outs that look alike come from different tables or passages of the source.

In the case of `CC1=C(C(=O)OCC(=O)[O-])CC(C(=O)OCC(=O)[O-])=C(C)N1.[Na+].[Na+]` [Carbatone, Disodium salt of carboxylate-methyl ester of 2,6-dimethyl-1,4-dihydropyridine-3,5-dicarboxylic acid], the “Effect on cytostatic activity of cyclophosphane, 5-fluorouracil and arabisosyl cytosine” value in data set [1] (against leukaemia P388, murine sarcoma 37 and Walker's carcinosarcome) is listed as “potentiates the cytostatic activity”. Also, the “Antitumour activity of the compound itself” value in data set [1] (alone) was “exhibited no antitumour activity”. The “Effect on cyclophosphane toxicity” value in data set [1] (mice) is “decreasing the cyclophosphane toxicity”. The “Effect on the cytotoxic effect of 5-FU (in words)” value in data set [2] (combined treatment with 5-FU, MDA-MB-435s) is on record as “synergistically potentiates the cytotoxic effect of 5-FU”. Further, the IC50 in data set [2] (single agent, MDA-MB-435s) stood at 1320 µM.
On to `O=c1[nH]cc(F)c(=O)[nH]1` [Example 5-FU, 5-Fluorouracil], for which, in data set [2] (Homo sapiens, single agent, MDA-MB-435s), the IC50 amounted to 30 µM.
As to `CC1=C(C(=O)OCC(=O)O)C(C)C(C(=O)OCC(=O)O)=C(C)N1` [disodium salt of 2,4,6-trimethyl-1,4-dihydropyridine-3,5-bis-carbonyloxyacetic acid], the IC50 in data set [2] (Homo sapiens, MDA-MB-435S) was more than 2690 µM.
On the same count and under the same terms, to `CCC1C(C(=O)OCC(=O)O)=C(C)NC(C)=C1C(=O)OCC(=O)O` [disodium salt of 4-ethyl-2,6-dimethyl-1,4-dihydropyridine-3,5-bis-carbonyloxyacetic acid] belongs more than 2100 µM.

The values are drawn from patent US8492413B2, “Pharmaceutical combination of 5-fluorouracil and derivate of 1,4-dihydropyridine and its use in the treatment of cancer” (priority 2009, dated 2013).
